According to patent US6069176A, “Phenylethanolamine compounds useful as β 3 agonists, process for producing the same, and intermediates in the production of the same” (Mitsubishi-Tokyo Pharmaceuticals, Inc., priority 1995, dated 2000):
Counter-ions that a name gives are not always drawn. Like-named read-outs stand apart in the source and are kept apart here.

Legend:
β2 adrenergic receptor = β2 adrenergic receptor (Cavia porcellus, UniProt Q8K4Z4); experiment: [Test 3] relaxing effect on isolated guinea pig tracheal muscle (β2 adrenergic receptor stimulating effect); format: cell-based
rat colon [1] = experiment: [Test 6] suppressing effect on spontaneous locomotion of anesthetized rat colon (in vivo test); set-up: species or system rat (male Wistar rats); settings: iv, 10 min, read-out: ED50 (suppressing effect on spontaneous locomotion of anesthetized rat colon)
Procedure: [Test 6] […] The lead wire of the force transducer was connected to a multipurpose preamp through a bridge box (FB-01, Star Medical), and the spontaneous locomotion of the colon was recorded with a Thermal Array Recorder (Nihon Koden), upon which the total degrees of contraction over 10 minutes were compared before and after bolus administration.

[2] = test system: rat confinement stress-induced diarrhea models; experiment: [Test 7] suppression of diarrhea in rat confinement stress-induced diarrhea models; format: in vivo, rat (male Wistar rats); settings: po, 1.0 mg/kg; feces observed over 3 hours
Procedure: Examination of suppressing effect on diarrhea using rat confinement stress-induced diarrhea models
The nature of the feces excreted over a total of 3 hours was observed every 30 minutes, and the results were recorded as the diarrhea coefficient (0: no fecal excretion, 1: solid feces, 2: soft feces, 3: mild diarrhea, 4: muddy feces). Here, cases with a diarrhea coefficient score of 3 or higher, i.e. from feces which left a stain on filter paper to muddy feces, were judged as diarrhea, and the rate of diarrhea suppression was calculated (Table 6).

β3 adrenergic receptor [3] = target: T1, β3 adrenergic receptor (Rattus norvegicus, UniProt P26255); experiment: cell-based; set-up: Isolated rat fat was used to examine the effect on fat decomposition; from tissue; host or cells: adipocytes from fat around the testicles of male SD rats; species or system rat (male SD rats); settings: rat adipocyte suspension, 30 minutes at 30° C., glycerol content; read-out: lypolytic activity (EC50 value)
[4] = test system: isolated rat bladder detrusor muscle; experiment: [Test 5] relaxing effect on isolated rat bladder detrusor muscle (smooth muscle); format: cell-based; settings: read-out: EC50 (relaxing effect on isolated rat bladder detrusor muscle)
Procedure: [Test 5] Examination of relaxing effect on isolated rat bladder detrusor muscle (smooth muscle)
Rat bladders were isolated by a common method for preparation of strips. The isolated bladder strips were mounted in an organ bath filled with Krebs' solution kept at 37° C., under mixed gas aeration (95% O2 +5% CO2) and subjected to an initial tension of 1.0 g. Each test compound was cumulatively added to the organ bath at intervals of 10 minutes.

β1 adrenergic receptor = target: T2, β1 adrenergic receptor (Cavia porcellus, UniProt H0W3H1); experiment: [Test 4] heart beat increasing effect on isolated guinea pig right atrium (β1 adrenergic receptor stimulating effect); format: cell-based; settings: read-out: EC10 (heart beat increasing effect on isolated guinea pig right atrium)
T2 construct: functional heart beat increase (chronotropy)
Procedure: [Test 4] β1 adrenergic receptor stimulating effect
Isolated guinea pig right atrium strips were used to examine the heart beat increasing effect. Guinea pig right atriums were isolated by a common method, mounted in an organ bath filled with a nutrient medium (Krebs' buffer, 0.03 mM ascorbic acid, 0.03 mM EDTA, 10 M M phenanthramine) maintained at 37° C., gassed with 95% O2 and 5% CO2, and maintained at an initial tension of 0.5g, after which the cardiac contractile force and heart beats were recorded with a recorder.

β3 adrenergic receptor [5] = target: T1, β3 adrenergic receptor; experiment: [Test 1] spontaneous locomotion-suppressing effect on isolated rat colon (β3 adrenergic receptor stimulating effect); format: cell-based
rat bladder = experiment: [Test 9] bladder contraction induced by electrical stimulation of peripheral end of pelvic nerve in anesthetized rat; format: in vivo; settings: through femoral vein; 20 Hz, 0.3 msec, 5V; urethane and α-chloralose anesthesia
Source text: [Test 9] Effect on bladder contraction induced by electrical stimulation of peripheral end of pelvic nerve in anesthetized rat
After median incision in the abdomen of rats anesthetized with urethane and α-chloralose, the ureters on both sides were ligated and cut on the kidney side, and pledgets were placed on the cut sections to absorb the urine. Next, the hypogastric nerves on both sides were transected and the base of the penis were ligated at close the urethra. A small hole was opened in the top of bladder and, after inserting one end of a polyethylene tube, ligated. The other end of the polyethylene tube was connected to a pressure transducer (TP 400, Nihon Koden) to measure the intravesical pressure.
Physiological saline was injected into the bladder to obtain intravesical pressure at a 100 mm H2 O. The change of the intervesical pressure was recorded with a heat recorder (WT 685G, Nihon Koden). After ablating the left pelvic nerves from the fatty tissue around the bladder and cutting the central section, a platinum electrode was implanted at the peripheral end of the pelvic nerves. An electrical stimulation apparatus (SEN-3301, Nihon Koden) was used for generating a rectangular wave electrical stimulation (20 Hz, 0.3 msec, 5V) for 5 seconds every 5 minutes. […]

rat colon [6] = settings: Drugs of the Future, 18, 529-549 (1993); cited from earlier work
β3 adrenergic receptors = settings: prior art; cited from earlier work
[7] = Drugs of the Future, 18, 529-549 (1993); cited from earlier work
[8] = treatment for urinary incontinence; cited from earlier work
bladder detrusor muscle = settings: The autonomic nervous system, 26, 380-387 (1989); cited from earlier work
[9] = 10% augmentation of heart beats, 37° C.

T1 sequence (P26255 whole entry): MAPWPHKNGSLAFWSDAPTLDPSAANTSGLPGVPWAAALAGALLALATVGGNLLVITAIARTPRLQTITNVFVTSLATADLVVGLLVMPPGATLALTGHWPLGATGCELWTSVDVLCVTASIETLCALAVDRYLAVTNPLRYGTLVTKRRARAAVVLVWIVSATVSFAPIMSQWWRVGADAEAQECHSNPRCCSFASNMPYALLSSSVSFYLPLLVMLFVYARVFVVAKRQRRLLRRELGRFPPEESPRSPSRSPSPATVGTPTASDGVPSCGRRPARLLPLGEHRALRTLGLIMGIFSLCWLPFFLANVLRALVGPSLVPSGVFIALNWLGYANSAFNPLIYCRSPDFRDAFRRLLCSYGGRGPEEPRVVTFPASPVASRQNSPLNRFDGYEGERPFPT
T2 sequence (H0W3H1 1-470): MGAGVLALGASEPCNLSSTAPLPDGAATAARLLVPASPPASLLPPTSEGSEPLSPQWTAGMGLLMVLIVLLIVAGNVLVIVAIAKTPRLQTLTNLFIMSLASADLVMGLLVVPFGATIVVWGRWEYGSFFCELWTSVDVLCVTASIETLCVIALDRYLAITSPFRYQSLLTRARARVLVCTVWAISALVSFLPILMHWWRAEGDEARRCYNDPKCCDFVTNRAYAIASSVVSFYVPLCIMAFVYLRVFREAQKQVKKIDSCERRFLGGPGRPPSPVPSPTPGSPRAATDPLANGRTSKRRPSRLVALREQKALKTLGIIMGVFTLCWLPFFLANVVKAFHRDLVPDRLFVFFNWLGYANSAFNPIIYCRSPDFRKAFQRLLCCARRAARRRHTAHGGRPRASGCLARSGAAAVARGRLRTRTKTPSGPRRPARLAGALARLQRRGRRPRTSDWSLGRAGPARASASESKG
β2 adrenergic receptor, sequence (Q8K4Z4 whole entry): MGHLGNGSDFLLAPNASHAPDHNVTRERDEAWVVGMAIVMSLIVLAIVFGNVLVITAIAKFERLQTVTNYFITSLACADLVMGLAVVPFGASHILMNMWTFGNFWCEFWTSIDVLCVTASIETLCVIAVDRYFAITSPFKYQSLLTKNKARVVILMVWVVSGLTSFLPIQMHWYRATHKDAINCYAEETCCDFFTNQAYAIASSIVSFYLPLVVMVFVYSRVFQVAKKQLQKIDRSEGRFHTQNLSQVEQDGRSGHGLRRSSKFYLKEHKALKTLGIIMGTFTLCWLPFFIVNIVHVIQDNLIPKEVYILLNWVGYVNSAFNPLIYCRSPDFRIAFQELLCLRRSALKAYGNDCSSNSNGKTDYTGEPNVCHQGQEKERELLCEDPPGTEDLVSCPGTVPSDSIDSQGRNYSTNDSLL

Structure (SMILES) | EC50 (β2 adrenergic receptor) | diarrhea suppression rate [2] | EC50 (β3 adrenergic receptor [5]) | EC10 (β1 adrenergic receptor; [9]) | further results
O=C([O-])COc1cccc(C2CCCC(NC[C@H](O)c3cccc(Cl)c3)C2)c1.[Na+] (stereo partly shown) | 4200 nM | 60% | 1.4 nM |  | ED50 (rat colon [1]): 0.27 µg/kg; EC50 (β3 adrenergic receptor [3]): 21 nM; EC50 [4]: 16 nM; EC10 (β1 adrenergic receptor): > 30000 nM; suppression of bladder contraction (FIG. 2) (rat bladder): suppressed bladder contraction at a lower dose than Clenbuterol hydrochloride
O=C([O-])COc1ccccc1C1CCCC(NC[C@H](O)c2cccc(Cl)c2)C1.[Na+] (stereo partly shown) | 890 nM | 30% | 3.3 nM |  | EC10 (β1 adrenergic receptor): > 30000 nM
CCOC(=O)COc1ccc2c(c1)CC(NCC(O)c1cccc(Cl)c1)CC2.Cl (racemic) [SR 58611A, (RS)-N-(7-ethoxycarbonylmethoxy-1,2,3,4-tetrahydronaphth-2-yl)-2-(3-chlorophenyl)-2-hydroxyethanamine hydrochloride, reference compound] | 14000 nM | 20% | 7.7 nM | > 30000 nM | suppressing effect on spontaneous locomotion of rat colon (rat colon [6]): potent suppressing effect on spontaneous locomotion of rat colon; ED50 (rat colon [1]): 12 µg/kg; selective action on β3 adrenergic receptors (β3 adrenergic receptors): act selectively on β3 adrenergic receptors
COC(=O)COc1ccc(C[C@@H](C)NC[C@H](O)c2cccc(Cl)c2)cc1 (relative stereo) [BRL35135, (R*R*)-(±)-[4-[2-[2-(3-chlorophenyl)-2-hydroxyethylamino]propyl]phenoxy]acetic acid methyl ester hydrobromide salt] |  |  |  |  | lypolytic and hypoglycemic effect [7]: lypolytic and hypoglycemic effect; selective action on β3 adrenergic receptors (β3 adrenergic receptors): act selectively on β3 adrenergic receptors
O=C(O)COc1ccc(C2CCCC(NC[C@H](O)c3cccc(Cl)c3)C2)cc1 (single isomer, unassigned) [Example 32, acetate] | 15000 nM |  | 12 nM | > 30000 nM | 
CC(C)(C)NCC(O)c1cc(Cl)c(N)c(Cl)c1 (stereo not shown) [Clenbuterol] |  |  |  |  | side-effects [8]: side-effects including finger tremor and palpitation; EC50 [4]: 31 nM; relaxing effect on the bladder detrusor muscle (bladder detrusor muscle): relaxing effect on the bladder detrusor muscle
CCOC(=O)COc1cccc(C2CCCC(NC[C@H](O)c3cccc(Cl)c3)C2)c1 (stereo partly drawn) [Example 11, (1R)-1-(3-Chlorophenyl)-2-[3-(3-ethoxycarbonylmethoxyphenyl)cyclohexylamino]ethanol hydrochloride] | 790 nM |  | 3.7 nM | > 30000 nM | ED50 (rat colon [1]): 0.23 µg/kg
CCOC(=O)COc1cccc(C2CCCC(NC[C@H](O)c3cccc(Cl)c3)C2)c1 (stereo partly drawn) [Example 14, (1R)-1-(3-Chlorophenyl)-2-[3-(3-ethoxycarbonylmethoxyphenyl)cyclohexylamino]ethanol] |  | 50% |  |  | 
CCOC(=O)COc1ccc(C2CCCC(NC[C@H](O)c3cccc(Cl)c3)C2)cc1 (stereo partly drawn) [Example 28, (1R)-1-(3-Chlorophenyl)-2-[3-(4-ethoxycarbonylmethoxyphenyl)cyclohexylamino]ethanol hydrochloride] | 1100 nM |  | 15 nM |  | 
CCOC(=O)COc1ccccc1C1CCCC(NC[C@H](O)c2cccc(Cl)c2)C1 (stereo partly drawn) [Example 43, (1R)-(3-Chlorophenyl)-2-[3-(2-ethoxycarbonylmethoxyphenyl)cyclohexylamino]ethanol hydrochloride] | 820 nM | 50% | 3.8 nM | > 30000 nM | 
CCOC(=O)C1(C(=O)OCC)Oc2ccc(C3CCCC(NC[C@H](O)c4cccc(Cl)c4)C3)cc2O1 (stereo partly drawn) [Example 60, (2R)-Diethyl 5-[3-[2-(3-chlorophenyl)-2-hydroxyethylamino]cyclohexyl]benzo-1,3-dioxol-2,2-dicarboxylate] |  |  | 42 nM |  | 
CCOC(=O)COc1ccc(C2CCC(NC[C@H](O)c3cccc(Cl)c3)C2)cc1 (stereo partly drawn) [Example 69, (2R)-Ethyl (4-[3-[2-(3-chlorophenyl)-2-hydroxyethylamino]cyclopentyl]phenoxy)acetate] | 820 nM |  | 90 nM | > 30000 nM | 
CC(C)NCC(O)c1ccc(O)c(O)c1 (stereo not shown) [Isoproterenol] |  |  |  |  | EC50 [4]: 10 nM
